Source: patent US20180206495A1, “SUBSTITUTED ARYL AND HETEROARYL CARBOXYLIC ACID HYDRAZIDES OR SALTS THEREOF AND USE THEREOF TO INCREASE STRESS TOLERANCE IN PLANTS” (BAYER CROPSCIENCE AKTIENGESELLSCHAFT, priority 2015, published 2018)

Experiments:
[1] = tested on: Brassica napus; assay: In vivo analyses Part A: drought stress, spray application, visual damage scoring, Brassica napus
Description: (§1) Seeds of monocotyledonous and dicotyledonous crop plants were sown in sandy loam in wood-fiber or plastic pots, covered with soil or sand and cultivated in a greenhouse under good growth conditions. The trial plants were treated at the early leaf stage (BBCH10-BBCH13). To assure uniform water supply before commencement of stress, the potted plants were supplied with water by dam irrigation prior to substance application. The inventive compounds formulated in the form of wettable powders (WP) were sprayed onto the green parts of the plants as an aqueous suspension at an equivalent water application rate of 600 l/ha with addition of 0.2% wetting agent (e.g. agrotin). Substance application was followed immediately by stress treatment of the plants. For this purpose, the wood-fiber pots were transferred in plastic inserts in order to prevent them from subsequently drying out too quickly. Drought stress was induced by gradual drying out under the following conditions: “Day”: 14 hours with illumination at ˜26-30° C. “Night”: 10 hours without illumination at ˜18-20° C. The duration of the respective stress phases was guided mainly by the condition of the stressed control plants. It was ended (by re-irrigating and transfer to a greenhouse with good growth conditions) as soon as irreversible damage was observed on the stressed control plants. The end of the stress phase was followed by an about 4-7-day recovery phase, during which the plants were once again kept under good growth conditions in a greenhouse. The duration of the recovery phase was guided mainly by when the trial plants had attained a state which enabled visual scoring of potential effects, and is therefore variable. Once this juncture was reached, the intensities of damage were scored visually in comparison to untreated, unstressed controls of the same age. The damage intensity was at first assessed in per cent. These values were then used to calculate the efficacy of the test compounds by the following formula: [formula] EF: Efficacy DIs: Damage intensity of the stressed control plants DIt: Damage intensity of the stressed plants treated with test compound The values reported in tables A-1 to A-3 below are mean values from at least one trial with at least two repeats, showing the effects of selected compounds of the general formula (I) under drought stress on various crop plants.

[2] = tested on: Triticum aestivum; assay: In vivo analyses Part A: drought stress, spray application, visual damage scoring, Triticum aestivum
Description: as §1

[3] = tested on: Zea mays; assay: In vivo analyses Part A: drought stress, spray application, visual damage scoring, Zea mays
Description: as §1

[4] = tested on: Triticum aestivum; assay: In vivo analyses Part B: drought stress, spray application, appearance vs stressed control in categories, Triticum aestivum; parameters: key: 0: no positive effect; +: slight positive effect; ++: clear positive effect; +++: strong positive effect
Description: (§2) Seeds of monocotyledonous and dicotyledonous crop plants were sown in sandy loam in plastic pots, covered with soil or sand and cultivated in a greenhouse under good growth conditions. The test plants are treated at the early leaf stage (BBCH10-BBCH13). To assure uniform water supply before commencement of stress, the potted plants were supplied with water by dam irrigation prior to substance application. The inventive compounds were first formulated as wettable powders (WP) or dissolved in a solvent mixture. The further dilution was effected with water supplemented with 0.2% wetting agent (e.g. agrotin). The finished spray liquor was sprayed onto the green parts of the plant at an equivalent water application rate of 600 l/ha. Substance application was followed immediately by stress treatment of the plants. Drought stress was induced by gradual drying out under the following conditions: “Day”: 14 hours with illumination at ˜26-30° C. “Night”: 10 hours without illumination at ˜18-20° C. The duration of the respective stress phases was guided mainly by the condition of the stressed control plants. It was ended (by re-irrigating and transfer to a greenhouse with good growth conditions) as soon as irreversible damage was observed on the stressed control plants. The end of the stress phase was followed by an about 4-7-day recovery phase, during which the plants were once again kept under good growth conditions in a greenhouse. The duration of the recovery phase was guided mainly by when the trial plants had attained a state which enabled visual scoring of potential effects, and was therefore variable. Once this juncture had been reached, the appearance of the plants treated with test substances was recorded in comparison to the stressed control plants by the following categories: • 0 no positive effect • + slight positive effect • ++ clear positive effect • +++ strong positive effect In order to rule out any influence on the effects observed by any fungicidal or insecticidal action of the test compounds, it was additionally ensured that the tests proceeded without fungal infection or insect infestation. The values reported in tables B-1 and B-2 below are mean values of the results from at least three repeats. Effects of selected compounds of the general formula (I) under drought stress according to the following tables B-1 and B-2: […]

[5] = tested on: Brassica napus; assay: In vivo analyses Part B: drought stress, spray application, appearance vs stressed control in categories, Brassica napus; parameters: key: 0: no positive effect; +: slight positive effect; ++: clear positive effect; +++: strong positive effect; details: dosage 25 g/ha
Description: as §2

Cc1ccc(C(F)(F)F)c(C(=O)N(Cc2ccccn2)N(C)C)c1 [A13-21]
EF [%] (BRSNS) ([1]; dosage 25 g/ha): >5%
EF [%] (TRZAS) ([2]; dosage 250 g/ha): >5%
EF [%] (ZEAMX) ([3]; dosage 250 g/ha): >5%

CN(C)N(Cc1cccc([N+](=O)[O-])c1)C(=O)c1ccncc1 [C1-111]
EF [%] (BRSNS) ([1]; dosage 2.5 g/ha): >5%
EF [%] (TRZAS) ([2]; dosage 25 g/ha): >5%
EF [%] (ZEAMX) ([3]; dosage 25 g/ha): >5%

CN(C)N(Cc1nccc(Cl)c1Cl)C(=O)c1ccccc1C(F)(F)F [A1-40, N-[(3,4-Dichloropyridin-2-yl)methyl]-N′,N′-dimethyl-2-(trifluoromethyl)benzohydrazide]
EF [%] (BRSNS) ([1]; dosage 2.5 g/ha): >5%
EF [%] (TRZAS) ([2]; dosage 250 g/ha): >5%
Effect (TRZAS) ([4]; dosage 250 g/ha): ++
EF [%] (ZEAMX) ([3]; dosage 250 g/ha): >5%

CN(C)N(CCc1ccccc1Cl)C(=O)c1ccccc1C(F)(F)F [A1-612]
Effect (TRZAS) ([4]; dosage 25 g/ha): +
EF [%] (ZEAMX) ([3]; dosage 250 g/ha): >5%
Effect (BRSNS) [5]: +

Cc1c(OCC(F)(F)F)ccnc1CN(C(=O)c1ccc(Cl)cc1)N(C)C [A9-144]
EF [%] (ZEAMX) ([3]; dosage 25 g/ha): >5%

CN(C)N(Cc1ccc(Cl)cc1)C(=O)c1ccncc1 [C1-3]
EF [%] (BRSNS) ([1]; dosage 250 g/ha): >5%
EF [%] (ZEAMX) ([3]; dosage 25 g/ha): >5%

CN(C)N(Cc1cc(C(F)(F)F)ccc1Cl)C(=O)c1ccccn1 [D1-86]
EF [%] (BRSNS) ([1]; dosage 25 g/ha): >5%
EF [%] (ZEAMX) ([3]; dosage 250 g/ha): >5%

CN(C)N(Cc1ncc(Cl)cc1Cl)C(=O)c1cccc(Cl)c1 [A28-35]
EF [%] (BRSNS) ([1]; dosage 250 g/ha): >5%
EF [%] (ZEAMX) ([3]; dosage 250 g/ha): >5%

COc1cc(Cl)c(CN(C(=O)c2ccccc2C(F)(F)F)N(C)C)cc1OC [A1-147]
EF [%] (BRSNS) ([1]; dosage 25 g/ha): >5%
EF [%] (ZEAMX) ([3]; dosage 250 g/ha): >5%

CN(C)N(Cc1ccc(Br)cc1F)C(=O)c1ccc(Cl)cc1Cl [A12-44]
EF [%] (BRSNS) ([1]; dosage 25 g/ha): >5%
EF [%] (TRZAS) ([2]; dosage 250 g/ha): >5%
EF [%] (ZEAMX) ([3]; dosage 250 g/ha): >5%

CN(C)N(Cc1ccc2ccccc2n1)C(=O)c1cnccc1C(F)(F)F [B1-122]
EF [%] (BRSNS) ([1]; dosage 25 g/ha): >5%
EF [%] (ZEAMX) ([3]; dosage 250 g/ha): >5%

Cc1c(OCC(F)(F)F)ccnc1CN(C(=O)c1ccccc1Cl)N(C)C [A10-144]
EF [%] (TRZAS) ([2]; dosage 250 g/ha): >5%

Cc1c(OCC(F)(F)F)ccnc1CN(C(=O)c1cnccc1C(F)(F)F)N(C)C [B1-144]
EF [%] (BRSNS) ([1]; dosage 25 g/ha): >5%
EF [%] (TRZAS) ([2]; dosage 25 g/ha): >5%

CN(C)N(Cc1c(Cl)cccc1Cl)C(=O)c1ccccc1C(F)(F)F [A1-7]
EF [%] (ZEAMX) ([3]; dosage 250 g/ha): >5%

CN(C)N(Cc1ccc(Br)cc1F)C(=O)c1ccccc1C(F)(F)F [A1-44]
EF [%] (ZEAMX) ([3]; dosage 250 g/ha): >5%

COc1cc(OC)nc(CN(C(=O)c2ccccc2Cl)N(C)C)n1 [A10-30]
EF [%] (TRZAS) ([2]; dosage 250 g/ha): >5%

CN(C)N(CCc1ccc(C(C)(C)C)cc1)C(=O)c1ccc(Cl)cc1 [A9-639]
EF [%] (ZEAMX) ([3]; dosage 250 g/ha): >5%

CN(C)N(Cc1ccc2ccccc2n1)C(=O)c1cccc([N+](=O)[O-])c1 [A33-122]
EF [%] (BRSNS) ([1]; dosage 250 g/ha): >5%
EF [%] (ZEAMX) ([3]; dosage 25 g/ha): >5%

CN(C)N(CCc1ccc(C(C)(C)C)cc1)C(=O)c1cc(Cl)ccc1Cl [A7-639]
EF [%] (BRSNS) ([1]; dosage 25 g/ha): >5%
EF [%] (ZEAMX) ([3]; dosage 250 g/ha): >5%

CN(C)N(Cc1ccccn1)C(=O)c1cccnc1C(F)(F)C(F)(F)F [B3-21]
EF [%] (BRSNS) ([1]; dosage 250 g/ha): >5%
EF [%] (ZEAMX) ([3]; dosage 25 g/ha): >5%

CN(C)N(Cc1ccccc1Cl)C(=O)c1ccccc1[N+](=O)[O-] [A32-1]
EF [%] (ZEAMX) ([3]; dosage 250 g/ha): >5%

COc1c(C)cnc(CN(C(=O)c2ccc(Cl)cc2Cl)N(C)C)c1C [A12-37]
EF [%] (BRSNS) ([1]; dosage 25 g/ha): >5%
EF [%] (TRZAS) ([2]; dosage 25 g/ha): >5%

CN(C)N(Cc1ccc(Cl)cc1)C(=O)c1ccc(Cl)cc1 [A9-3]
EF [%] (BRSNS) ([1]; dosage 250 g/ha): >5%
EF [%] (ZEAMX) ([3]; dosage 250 g/ha): >5%

CN(C)N(CCc1ccc(Cl)cc1Cl)C(=O)c1ccc(Cl)cc1 [A9-615]
EF [%] (ZEAMX) ([3]; dosage 250 g/ha): >5%

COc1c(C)cnc(CN(C(=O)c2ccccc2C(F)(F)F)N(C)C)c1C [A1-37]
EF [%] (BRSNS) ([1]; dosage 2.5 g/ha): >5%
EF [%] (TRZAS) ([2]; dosage 250 g/ha): >5%

CN(C)N(Cc1ccc2ccccc2n1)C(=O)c1cccc(C#N)c1 [A34-122]
EF [%] (ZEAMX) ([3]; dosage 25 g/ha): >5%

COc1ccccc1C(=O)N(Cc1ccccn1)N(C)C [A8-21]
EF [%] (BRSNS) ([1]; dosage 25 g/ha): >5%
EF [%] (TRZAS) ([2]; dosage 250 g/ha): >5%
EF [%] (ZEAMX) ([3]; dosage 250 g/ha): >5%

Cc1ccc(CCN(C(=O)c2ccc(Cl)cc2)N(C)C)cc1C [A9-663]
EF [%] (ZEAMX) ([3]; dosage 250 g/ha): >5%
